Eight compounds from publication doi:10.1101/2025.11.06.686927v1 (biorxiv, 2025) can be followed below.

Molecules are shown by their SMILES.

The target of one data set is CDK5/P25 (Homo sapiens, UniProt Q00535). Kind of data set: biochemical. Particulars: read-out: % of control remaining.
Another data set deals with CDK2/cyclin A (Homo sapiens, UniProt P24941). Description: biochemical. Particulars: read-out: % of control remaining.
The next data set addresses PIM1 (Homo sapiens, UniProt P11309). Kind of data set: biochemical. The note with it: read-out: % of control remaining.
In another data set the test system is HCT116. Description: cells. Also on record: species or system RPE-1, SH-SY5Y, U2OS. Particulars: Homo sapiens, HCT-116, 48 h, read-out: HCT116 EC50.
Another data set can be described thus: in vitro. Further details: species or system HCT116, SH-SY5Y, U2OS. Particulars: human, rpe-1 cells.
For data set [1], the target named is T1, CDK8-cyclin C (HsCDK8/Cyclin C) (Homo sapiens, UniProt P49336). Kind of data set: radiometric […]-ATP kinase assay, RBER-IRStide substrate. It counts as biochemical.
T1 sequence (P49336 whole entry): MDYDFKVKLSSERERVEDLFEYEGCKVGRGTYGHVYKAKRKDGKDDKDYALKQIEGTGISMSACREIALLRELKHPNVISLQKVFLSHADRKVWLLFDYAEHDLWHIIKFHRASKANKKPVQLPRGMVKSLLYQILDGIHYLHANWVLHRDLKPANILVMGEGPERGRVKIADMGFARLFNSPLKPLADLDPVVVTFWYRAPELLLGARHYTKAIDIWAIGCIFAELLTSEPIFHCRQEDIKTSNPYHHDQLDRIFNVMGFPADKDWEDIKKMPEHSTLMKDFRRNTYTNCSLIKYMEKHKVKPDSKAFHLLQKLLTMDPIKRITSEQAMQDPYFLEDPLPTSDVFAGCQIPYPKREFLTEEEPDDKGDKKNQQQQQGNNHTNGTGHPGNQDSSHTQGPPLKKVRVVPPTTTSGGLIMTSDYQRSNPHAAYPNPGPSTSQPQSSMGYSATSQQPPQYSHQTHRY
T1 sequence (P24863 whole entry partner): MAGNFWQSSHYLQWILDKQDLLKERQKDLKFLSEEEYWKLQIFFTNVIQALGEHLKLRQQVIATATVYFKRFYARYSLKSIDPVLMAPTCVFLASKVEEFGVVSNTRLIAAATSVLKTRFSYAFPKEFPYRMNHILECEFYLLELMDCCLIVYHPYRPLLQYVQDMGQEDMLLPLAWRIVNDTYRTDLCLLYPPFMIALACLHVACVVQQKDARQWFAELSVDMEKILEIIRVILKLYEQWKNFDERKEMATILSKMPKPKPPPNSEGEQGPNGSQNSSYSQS
Data set [2] concerns the target T2, DYRK1A (RnDYRK1A-kd) (Rattus norvegicus, UniProt Q63470). Description: radiometric […]-ATP kinase assay, peptide KKISGRLSPIMTEQ
Particulars: read-out: % residual activity at 10 μM. It counts as biochemical.

Data set [3] has as its target T3, CLK1 (MmCLK1) (Mus musculus, UniProt P22518). Kind of data set: radiometric […]-ATP kinase assay, peptide GRSRSRSRSRSR
It counts as biochemical. Particulars: read-out: % residual activity at 10 μM.

The target in data set [4] is T1, CDK8-cyclin C (HsCDK8/Cyclin C). Description: biochemical. Particulars: read-out: % of control remaining.
A further data set concerns SH-SY5Y. Kind of data set: cells. Also on record: species or system RPE-1, HCT116, U2OS. The note with it: Homo sapiens, 48 h, read-out: SHSY-5Y EC50.
The next data set concerns U2OS. Description: cells. Further details: species or system RPE-1, HCT116, SH-SY5Y. Particulars: Homo sapiens, 48 h, read-out: U2OS EC50.
The target in a further data set is T4, HASPIN (Homo sapiens, UniProt Q8TF76).
T4 sequence (Q8TF76 1-798): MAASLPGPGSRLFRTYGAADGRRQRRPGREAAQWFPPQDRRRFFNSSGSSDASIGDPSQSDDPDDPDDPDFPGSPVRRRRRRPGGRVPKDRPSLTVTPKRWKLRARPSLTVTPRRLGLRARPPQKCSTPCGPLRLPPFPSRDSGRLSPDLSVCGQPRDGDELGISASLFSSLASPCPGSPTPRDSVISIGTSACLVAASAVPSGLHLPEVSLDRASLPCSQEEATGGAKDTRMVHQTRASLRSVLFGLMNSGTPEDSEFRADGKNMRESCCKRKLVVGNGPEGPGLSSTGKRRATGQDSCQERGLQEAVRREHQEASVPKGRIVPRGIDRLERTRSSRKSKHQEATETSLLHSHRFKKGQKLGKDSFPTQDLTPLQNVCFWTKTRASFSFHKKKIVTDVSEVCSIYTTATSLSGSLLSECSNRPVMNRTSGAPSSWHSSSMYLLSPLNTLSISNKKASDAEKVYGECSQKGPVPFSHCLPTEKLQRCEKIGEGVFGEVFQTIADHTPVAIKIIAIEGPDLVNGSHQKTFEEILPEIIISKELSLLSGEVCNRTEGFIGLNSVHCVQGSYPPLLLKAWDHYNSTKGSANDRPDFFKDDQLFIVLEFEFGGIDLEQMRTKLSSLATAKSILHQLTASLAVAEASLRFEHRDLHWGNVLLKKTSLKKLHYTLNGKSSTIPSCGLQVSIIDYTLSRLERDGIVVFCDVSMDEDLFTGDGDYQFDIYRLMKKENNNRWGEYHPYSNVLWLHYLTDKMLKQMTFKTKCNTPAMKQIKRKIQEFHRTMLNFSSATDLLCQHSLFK
Description: biochemical. The note with it: read-out: % of control remaining.

Data set [5] deals with T2, DYRK1A (RnDYRK1A-kd). Description: biochemical. The note with it: read-out: % of control remaining.
Data set [6] addresses T3, CLK1 (MmCLK1). Description: biochemical. The note with it: read-out: % of control remaining.

Sequence of CDK5/P25 (Q00535 whole entry): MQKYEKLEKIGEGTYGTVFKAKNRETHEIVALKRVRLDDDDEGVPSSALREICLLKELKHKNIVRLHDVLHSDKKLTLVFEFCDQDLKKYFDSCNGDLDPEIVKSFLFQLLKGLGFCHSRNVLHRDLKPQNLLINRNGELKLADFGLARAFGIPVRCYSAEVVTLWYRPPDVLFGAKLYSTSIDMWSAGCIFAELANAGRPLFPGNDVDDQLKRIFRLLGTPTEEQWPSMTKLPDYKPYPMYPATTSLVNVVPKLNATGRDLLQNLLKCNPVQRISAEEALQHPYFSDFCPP
Sequence of CDK5/P25 (Q15078 whole entry partner): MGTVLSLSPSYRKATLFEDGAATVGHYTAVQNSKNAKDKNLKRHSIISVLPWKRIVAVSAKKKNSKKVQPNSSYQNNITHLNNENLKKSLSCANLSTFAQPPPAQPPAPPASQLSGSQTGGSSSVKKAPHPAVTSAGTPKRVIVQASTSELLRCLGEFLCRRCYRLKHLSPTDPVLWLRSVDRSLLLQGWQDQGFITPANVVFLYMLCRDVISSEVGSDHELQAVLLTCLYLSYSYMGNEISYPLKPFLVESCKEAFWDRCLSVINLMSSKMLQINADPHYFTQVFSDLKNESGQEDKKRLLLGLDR
T3 sequence (P22518 whole entry): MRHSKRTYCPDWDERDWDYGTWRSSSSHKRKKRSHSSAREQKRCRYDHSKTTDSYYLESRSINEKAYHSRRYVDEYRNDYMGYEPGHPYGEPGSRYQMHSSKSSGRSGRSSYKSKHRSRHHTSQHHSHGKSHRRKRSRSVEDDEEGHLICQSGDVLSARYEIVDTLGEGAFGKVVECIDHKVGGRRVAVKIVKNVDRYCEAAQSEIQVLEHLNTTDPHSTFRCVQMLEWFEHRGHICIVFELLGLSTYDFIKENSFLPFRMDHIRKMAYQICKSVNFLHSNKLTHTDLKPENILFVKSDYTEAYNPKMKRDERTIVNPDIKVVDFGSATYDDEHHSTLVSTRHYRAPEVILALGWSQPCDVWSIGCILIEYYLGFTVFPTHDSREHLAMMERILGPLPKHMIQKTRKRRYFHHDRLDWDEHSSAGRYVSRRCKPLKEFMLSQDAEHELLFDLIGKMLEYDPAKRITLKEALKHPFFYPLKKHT
Sequence of PIM1 (P11309 whole entry): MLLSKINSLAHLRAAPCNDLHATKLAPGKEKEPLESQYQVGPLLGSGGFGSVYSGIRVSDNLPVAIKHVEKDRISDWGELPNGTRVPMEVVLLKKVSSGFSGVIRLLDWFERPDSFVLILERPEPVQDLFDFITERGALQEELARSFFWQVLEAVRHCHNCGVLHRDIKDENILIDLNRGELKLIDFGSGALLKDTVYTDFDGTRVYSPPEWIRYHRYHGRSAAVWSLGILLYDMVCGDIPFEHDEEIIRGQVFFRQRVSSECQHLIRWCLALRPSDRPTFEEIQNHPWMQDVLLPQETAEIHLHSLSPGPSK

In the case of `N#Cc1ccc2ncnc(NCCc3ccccc3)c2c1` [Senexin A], the remaining activity at 10 µM was 57% on CDK5/P25; 62% at CDK2/cyclin A; 78% at PIM1; -7% at DYRK1A (RnDYRK1A-kd) [2]; 34% on CLK1 (MmCLK1) [3]; 15% in data set [4]. The figures for the concentration for a half-maximal effect (EC50) with HCT116, in the data set with SH-SY5Y and in the data set with U2OS were above 50 µM, above 50 µM and 48 µM, respectively. For the same compound, the midpoint of cytotoxicity in the data set “in vitro”, the CC50 at 48 h, lay at 41 µM. The compound also showed a concentration for half-maximal inhibition (IC50) in data set [1] of 0.03 µM.

For the compound `O=C(CSc1ccc(-c2cccnc2)nn1)Nc1cccc(C(F)(F)F)c1` [compound 9, #9], the remaining activity at 10 µM at HASPIN worked out at 94%; on DYRK1A (RnDYRK1A-kd) [5], 80%; at CDK5/P25, 107%; on CDK2/cyclin A, 78%; on PIM1, 71%; in [4], 10%. Further, the remaining activity at 10 µM on CLK1 (MmCLK1) [6] was 111%. The 50% effective concentration (EC50) in the data set on HCT116, with SH-SY5Y and in the data set with U2OS was above 50 µM each time. The same compound had a CC50 at 48 h in “in vitro” above 50 µM. This compound came in with an IC50 in data set [1] of 0.04 µM.

As to `O=C(Nc1ccc(Cc2ccncc2)cc1)Nc1cccc2ccccc12` [compound 22, #22], the remaining activity at 10 µM on HASPIN was 96%; at DYRK1A (RnDYRK1A-kd) [5], 83%; at CDK5/P25, 115%; at CDK2/cyclin A, 76%; on PIM1, 85%; in data set [4], 10%. Further, the remaining activity at 10 µM at CLK1 (MmCLK1) [6] is 151%. The results for the EC50 in the data set on HCT116, with SH-SY5Y and in the data set with U2OS were 29 µM, 41 µM and 14 µM, respectively. Moreover, in “in vitro”, half-maximal cytotoxicity (CC50 at 48 h) was put at 10 µM. Also, half-maximal inhibition in data set [1] (IC50) was put at 0.16 µM.

On to `Cc1cccc(OCC(=O)Nc2ccc3oc(-c4cccnc4)nc3c2)c1C` [compound 45, #45], for which the remaining activity at 10 µM stood at 144% at HASPIN; 73% at DYRK1A (RnDYRK1A-kd) [5]; 115% at CDK5/P25; 82% at CDK2/cyclin A; 127% at PIM1; 6% in data set [4]. Moreover, the remaining activity at 10 µM at CLK1 (MmCLK1) [6] was found to be 143%. The half-maximal effective concentration (EC50) was 19 µM with HCT116, 8 µM in the data set with SH-SY5Y and 9 µM in the data set on U2OS. Further, the CC50 at 48 h in the data set “in vitro” was 43 µM. For the same compound, the concentration for half-maximal inhibition (IC50) in data set [1] was 0.03 µM.

On to `O=C(NC[C@@H]1Cc2cc(-c3cncnc3)ccc2O1)c1scc2c1CCCC2` [compound 47, #47], for which the remaining activity at 10 µM at HASPIN came to 118%; on DYRK1A (RnDYRK1A-kd) [5], 75%; on CDK5/P25, 107%; at CDK2/cyclin A, 81%; at PIM1 it was 89%; in data set [4], 5%. For the same compound, the remaining activity at 10 µM on CLK1 (MmCLK1) [6] stood at 109%. Further, the EC50 in the data set with HCT116, in the data set on SH-SY5Y and with U2OS was above 50 µM throughout. The same compound returned a CC50 at 48 h in the data set “in vitro” above 50 µM. In addition, the IC50 in [1] was determined as 0.2 µM.

In the case of `O=C(NC[C@H]1CC(=O)N(c2ccc3c(c2)OCO3)C1)Nc1cccc(C(F)(F)F)c1` [compound 75, #75], the remaining activity at 10 µM was 123% at HASPIN; 89% at DYRK1A (RnDYRK1A-kd) [5]; 101% on CDK5/P25; 106% at CDK2/cyclin A; 95% at PIM1; 8% in data set [4]. The remaining activity at 10 µM on CLK1 (MmCLK1) [6] was 99%. In addition, the EC50 in the data set with HCT116, with SH-SY5Y and with U2OS was above 50 µM each time. For the same compound, the CC50 at 48 h in the data set “in vitro” is above 50 µM. In data set [1], this compound returned a half-inhibitory concentration (IC50) of 0.05 µM.

Take `O=C(Nc1ccc2oc(-c3cccnc3)nc2c1)c1ncoc1-c1ccccc1Cl` [compound 76, #76]: the remaining activity at 10 µM at HASPIN worked out at 116%; at DYRK1A (RnDYRK1A-kd) [5], 80%; on CDK5/P25 it was 89%; on CDK2/cyclin A, 73%; at PIM1, 109%; on CLK1 (MmCLK1) [3], 37%. Besides, the remaining activity at 10 µM in data set [4] was 11%. The EC50 in the data set on HCT116, in the data set on SH-SY5Y and in the data set on U2OS was above 50 µM in each case. Besides, the CC50 at 48 h in “in vitro” is above 50 µM. In data set [1], this compound returned an IC50 of 0.1 µM.

For `Cc1ccc(NC(=O)Nc2ccc(Cc3ccncc3)cc2)cc1C` [compound 82, #82], the remaining activity at 10 µM is 111% on HASPIN; 134% at DYRK1A (RnDYRK1A-kd) [5]; 109% at CDK5/P25; 120% on CDK2/cyclin A; 89% on PIM1; 19% in data set [4]. Besides, on CLK1 (MmCLK1) [6], the remaining activity at 10 µM was 81%. The EC50 was determined as 31 µM in the data set on HCT116, 24 µM in the data set with SH-SY5Y and 10 µM in the data set on U2OS. In “in vitro”, this compound had a CC50 at 48 h above 50 µM. Besides, the IC50 in data set [1] came out at 0.005 µM.
